For 3 compounds, EC50 results are on record in PubChem BioAssay AID1340 (NMMLSC, 2008).

This test addresses Ras-related C3 botulinum toxin substrate 1 (Homo sapiens) (UniProt P63000). In words: inhibition of wildtype Rac1 nucleotide loading – biochemical, multiplex bead flow cytometry, dose response (AID 1340). The note with it: GST-Rac1 beads, Bodipy-FL-GTP binding. In general terms: A flow cytometer gives signals particle by particle.
Regarding `COc1cc(/C=N/Nc2nnc3c(n2)[nH]c2ccccc23)ccc1O`, the EC50 was 0.634 µM. Turning to `NC(=S)N=Nc1c(O)[nH]c2ccc(F)cc12`, the EC50 is 3.46 µM. Under `COc1ccc(C(=O)/C=C/Nc2ccc(S(=O)(=O)Nc3nc(C)cc(C)n3)cc2)cc1OC` stands 3.12 µM.

For orientation: EC50 means the midpoint of the concentration-response curve.
